Measured values reported in paper PMC6120666 (The EMBO Journal, 2018).

Key:
Assay in all cases: Drug affinity chromatography with c-ponatinib and LC-MS/MS (ponatinib interactome)
Format in all cases: binding
[1] = biological target: T1, proteins of U2OS cell lysate (Homo sapiens, UniProt O14976); details: GAK, Cyclin-G-associated kinase
T1 construct: Proteins enriched by c-ponatinib from U2OS cell lysate; endogenous in cells; host or cells: U2OS cell lysate
In short: (§1)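 U2OS cell lysate in NP-40 lysis buffer (2 mg protein per pulldown) was incubated with amine-derivatized NHS beads for 2 h at 4 °C. Bound proteins were washed, eluted with 100 mM formic acid, reduced, alkylated and trypsin-digested, then identified by nano-UPLC–MS/MS on Orbitrap instruments with a 60 min gradient.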

[2] = biological target: T2, proteins of U2OS cell lysate (Homo sapiens, UniProt O43318); details: MAP3K7;DKFZp586F0420, Mitogen-activated protein kinase kinase kinase 7
T2 construct: Proteins enriched by c-ponatinib from U2OS cell lysate; endogenous in cells; host or cells: U2OS cell lysate
In short: as §1

[3] = biological target: T3, proteins of U2OS cell lysate (Homo sapiens, UniProt O75935); details: DCTN3, Dynactin subunit 3
T3 construct: Proteins enriched by c-ponatinib from U2OS cell lysate; endogenous in cells; host or cells: U2OS cell lysate
In short: as §1

[4] = biological target: T4, proteins of U2OS cell lysate (Homo sapiens, UniProt P05388); details: RPLP0;RPLP0P6, 60S acidic ribosomal protein P0
T4 construct: Proteins enriched by c-ponatinib from U2OS cell lysate; endogenous in cells; host or cells: U2OS cell lysate
In short: as §1

[5] = biological target: T5, proteins of U2OS cell lysate (Homo sapiens, UniProt P05783); details: KRT18, Keratin, type I cytoskeletal 18
T5 construct: Proteins enriched by c-ponatinib from U2OS cell lysate; endogenous in cells; host or cells: U2OS cell lysate
In short: as §1

[6] = biological target: T6, proteins of U2OS cell lysate (Homo sapiens, UniProt P07814); details: EPRS, Bifunctional glutamate/proline--tRNA ligase
T6 construct: Proteins enriched by c-ponatinib from U2OS cell lysate; endogenous in cells; host or cells: U2OS cell lysate
In short: as §1

[7] = biological target: T7, proteins of U2OS cell lysate (Homo sapiens, UniProt P09496); details: CLTA, Clathrin light chain A
T7 construct: Proteins enriched by c-ponatinib from U2OS cell lysate; endogenous in cells; host or cells: U2OS cell lysate
In short: as §1

[8] = biological target: T8, proteins of U2OS cell lysate (Homo sapiens, UniProt P15880); details: RPS2, 40S ribosomal protein S2
T8 construct: Proteins enriched by c-ponatinib from U2OS cell lysate; endogenous in cells; host or cells: U2OS cell lysate
In short: as §1

[9] = biological target: T9, proteins of U2OS cell lysate (Homo sapiens, UniProt P28066); details: PSMA5, Proteasome subunit alpha type-5
T9 construct: Proteins enriched by c-ponatinib from U2OS cell lysate; endogenous in cells; host or cells: U2OS cell lysate
In short: as §1

[10] = biological target: T10, proteins of U2OS cell lysate (Homo sapiens, UniProt P35606); details: COPB2, Coatomer subunit beta
T10 construct: Proteins enriched by c-ponatinib from U2OS cell lysate; endogenous in cells; host or cells: U2OS cell lysate
In short: as §1

[11] = biological target: T11, proteins of U2OS cell lysate (Homo sapiens, UniProt P55036); details: PSMD4, 26S proteasome non-ATPase regulatory subunit 4
T11 construct: Proteins enriched by c-ponatinib from U2OS cell lysate; endogenous in cells; host or cells: U2OS cell lysate
In short: as §1

[12] = biological target: T12, proteins of U2OS cell lysate (Homo sapiens, UniProt P56381); details: ATP5E;ATP5EP2, ATP synthase subunit epsilon, mitochondrial
T12 construct: Proteins enriched by c-ponatinib from U2OS cell lysate; endogenous in cells; host or cells: U2OS cell lysate
In short: as §1

[13] = biological target: T13, proteins of U2OS cell lysate (Homo sapiens, UniProt P62191); details: PSMC1, 26S protease regulatory subunit 4
T13 construct: Proteins enriched by c-ponatinib from U2OS cell lysate; endogenous in cells; host or cells: U2OS cell lysate
In short: as §1

[14] = biological target: T14, proteins of U2OS cell lysate (Homo sapiens, UniProt Q00325); details: SLC25A3, Phosphate carrier protein, mitochondrial
T14 construct: Proteins enriched by c-ponatinib from U2OS cell lysate; endogenous in cells; host or cells: U2OS cell lysate
In short: as §1

[15] = biological target: T15, proteins of U2OS cell lysate (Homo sapiens, UniProt Q14315); details: FLNC, Filamin-C
T15 construct: Proteins enriched by c-ponatinib from U2OS cell lysate; endogenous in cells; host or cells: U2OS cell lysate
In short: as §1

[16] = biological target: T16, proteins of U2OS cell lysate (Homo sapiens, UniProt Q6PJG6); details: BRAT1, BRCA1-associated ATM activator 1
T16 construct: Proteins enriched by c-ponatinib from U2OS cell lysate; endogenous in cells; host or cells: U2OS cell lysate
In short: as §1

[17] = biological target: T17, proteins of U2OS cell lysate (Homo sapiens, UniProt P45880); details: captured protein VDAC2, Rank 163
T17 construct: Proteins enriched by c-ponatinib from U2OS cell lysate; endogenous in cells; host or cells: U2OS cell lysate
In short: as §1

[18] = biological target: T18, proteins of U2OS cell lysate (Homo sapiens, UniProt P46782); details: captured protein RPS5, Rank 160
T18 construct: Proteins enriched by c-ponatinib from U2OS cell lysate; endogenous in cells; host or cells: U2OS cell lysate
In short: as §1

[19] = biological target: T19, proteins of U2OS cell lysate (Homo sapiens, UniProt Q9UHX1); details: captured protein PUF60, Rank 203
T19 construct: Proteins enriched by c-ponatinib from U2OS cell lysate; endogenous in cells; host or cells: U2OS cell lysate
In short: as §1

T3 sequence (O75935 whole entry): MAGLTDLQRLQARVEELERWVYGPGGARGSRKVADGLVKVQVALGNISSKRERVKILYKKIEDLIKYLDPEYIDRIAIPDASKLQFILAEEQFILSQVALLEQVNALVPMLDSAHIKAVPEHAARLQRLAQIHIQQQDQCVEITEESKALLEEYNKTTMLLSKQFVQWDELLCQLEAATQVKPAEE
T11 sequence (P55036 whole entry): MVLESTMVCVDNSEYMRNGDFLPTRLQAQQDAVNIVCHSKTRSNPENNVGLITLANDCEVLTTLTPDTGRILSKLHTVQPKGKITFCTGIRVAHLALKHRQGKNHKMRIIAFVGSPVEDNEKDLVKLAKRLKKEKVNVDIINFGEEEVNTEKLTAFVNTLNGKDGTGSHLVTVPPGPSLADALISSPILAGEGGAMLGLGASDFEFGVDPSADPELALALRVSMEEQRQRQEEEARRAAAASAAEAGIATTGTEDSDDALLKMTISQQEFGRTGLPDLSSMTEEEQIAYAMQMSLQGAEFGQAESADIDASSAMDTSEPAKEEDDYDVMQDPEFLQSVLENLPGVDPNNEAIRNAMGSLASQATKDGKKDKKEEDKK
T5 sequence (P05783 whole entry): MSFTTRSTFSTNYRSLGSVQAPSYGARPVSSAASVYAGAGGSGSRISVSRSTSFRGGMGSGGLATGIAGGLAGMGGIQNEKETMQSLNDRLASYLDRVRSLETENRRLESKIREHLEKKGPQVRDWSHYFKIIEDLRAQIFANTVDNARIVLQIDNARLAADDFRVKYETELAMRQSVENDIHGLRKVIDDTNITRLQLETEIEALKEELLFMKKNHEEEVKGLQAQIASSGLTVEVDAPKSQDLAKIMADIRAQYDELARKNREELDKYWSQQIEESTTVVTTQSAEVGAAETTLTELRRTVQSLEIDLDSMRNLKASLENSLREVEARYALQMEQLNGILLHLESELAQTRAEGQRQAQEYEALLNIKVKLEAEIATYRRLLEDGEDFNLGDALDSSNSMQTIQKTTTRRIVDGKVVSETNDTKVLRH
T10 sequence (P35606 whole entry): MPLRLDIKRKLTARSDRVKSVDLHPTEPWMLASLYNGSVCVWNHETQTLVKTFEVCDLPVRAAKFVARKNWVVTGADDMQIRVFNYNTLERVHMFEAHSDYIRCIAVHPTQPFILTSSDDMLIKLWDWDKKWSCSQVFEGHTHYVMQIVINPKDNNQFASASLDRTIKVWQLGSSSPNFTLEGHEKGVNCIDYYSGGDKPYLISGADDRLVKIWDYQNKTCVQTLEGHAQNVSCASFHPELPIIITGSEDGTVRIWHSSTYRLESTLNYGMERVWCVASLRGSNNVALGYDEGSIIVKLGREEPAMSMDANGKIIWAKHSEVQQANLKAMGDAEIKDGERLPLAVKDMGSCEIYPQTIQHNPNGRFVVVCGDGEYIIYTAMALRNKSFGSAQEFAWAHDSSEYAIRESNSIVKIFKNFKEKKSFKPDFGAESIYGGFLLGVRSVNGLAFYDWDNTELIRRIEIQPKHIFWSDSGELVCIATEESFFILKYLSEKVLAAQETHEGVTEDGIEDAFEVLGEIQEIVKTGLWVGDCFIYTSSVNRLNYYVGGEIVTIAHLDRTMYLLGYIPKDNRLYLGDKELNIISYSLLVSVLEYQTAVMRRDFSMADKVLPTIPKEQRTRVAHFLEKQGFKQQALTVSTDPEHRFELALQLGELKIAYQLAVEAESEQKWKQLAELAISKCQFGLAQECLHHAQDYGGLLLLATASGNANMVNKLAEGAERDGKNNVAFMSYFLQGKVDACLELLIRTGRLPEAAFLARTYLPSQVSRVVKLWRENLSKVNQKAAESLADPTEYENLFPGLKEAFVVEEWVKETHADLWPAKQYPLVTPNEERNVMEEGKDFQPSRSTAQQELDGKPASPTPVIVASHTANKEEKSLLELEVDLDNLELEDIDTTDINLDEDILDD
T7 sequence (P09496 whole entry): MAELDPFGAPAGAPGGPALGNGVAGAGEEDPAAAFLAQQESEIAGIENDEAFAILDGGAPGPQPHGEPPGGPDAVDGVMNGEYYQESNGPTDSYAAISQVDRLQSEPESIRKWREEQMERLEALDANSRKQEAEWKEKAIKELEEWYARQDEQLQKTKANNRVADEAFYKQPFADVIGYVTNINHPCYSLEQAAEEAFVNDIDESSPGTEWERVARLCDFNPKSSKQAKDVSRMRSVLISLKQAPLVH
T13 sequence (P62191 whole entry): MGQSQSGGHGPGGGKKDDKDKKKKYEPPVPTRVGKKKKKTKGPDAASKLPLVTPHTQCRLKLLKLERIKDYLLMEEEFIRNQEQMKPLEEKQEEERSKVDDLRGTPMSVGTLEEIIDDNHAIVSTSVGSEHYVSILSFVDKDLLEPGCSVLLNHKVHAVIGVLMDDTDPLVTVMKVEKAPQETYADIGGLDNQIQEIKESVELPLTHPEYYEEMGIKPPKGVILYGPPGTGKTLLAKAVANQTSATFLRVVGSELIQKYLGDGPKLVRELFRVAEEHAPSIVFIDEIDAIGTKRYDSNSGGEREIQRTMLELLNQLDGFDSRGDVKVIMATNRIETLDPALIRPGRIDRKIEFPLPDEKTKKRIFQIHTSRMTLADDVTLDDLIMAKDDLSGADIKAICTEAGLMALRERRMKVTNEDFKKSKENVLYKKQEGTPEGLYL
T16 sequence (Q6PJG6 whole entry): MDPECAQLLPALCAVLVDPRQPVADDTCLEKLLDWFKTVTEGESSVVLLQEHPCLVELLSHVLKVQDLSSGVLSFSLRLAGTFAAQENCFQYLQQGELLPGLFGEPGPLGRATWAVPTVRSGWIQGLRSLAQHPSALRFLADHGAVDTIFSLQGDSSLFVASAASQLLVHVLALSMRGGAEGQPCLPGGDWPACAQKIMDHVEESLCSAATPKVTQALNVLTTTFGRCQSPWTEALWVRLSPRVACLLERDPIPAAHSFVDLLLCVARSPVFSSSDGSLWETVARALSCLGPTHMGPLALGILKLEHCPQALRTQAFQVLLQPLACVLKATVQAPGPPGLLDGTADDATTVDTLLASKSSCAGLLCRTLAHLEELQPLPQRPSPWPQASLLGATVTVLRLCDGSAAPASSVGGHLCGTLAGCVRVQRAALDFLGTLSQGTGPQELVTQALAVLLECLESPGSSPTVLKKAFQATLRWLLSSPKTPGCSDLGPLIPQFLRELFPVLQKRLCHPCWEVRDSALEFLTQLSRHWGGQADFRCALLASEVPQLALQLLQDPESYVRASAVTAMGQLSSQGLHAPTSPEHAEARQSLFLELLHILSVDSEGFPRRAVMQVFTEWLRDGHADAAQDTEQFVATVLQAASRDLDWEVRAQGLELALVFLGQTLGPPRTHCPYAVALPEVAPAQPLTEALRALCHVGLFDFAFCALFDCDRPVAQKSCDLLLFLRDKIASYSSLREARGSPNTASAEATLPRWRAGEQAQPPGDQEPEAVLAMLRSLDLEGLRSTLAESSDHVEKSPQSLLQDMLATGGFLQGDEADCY
T19 sequence (Q9UHX1 whole entry): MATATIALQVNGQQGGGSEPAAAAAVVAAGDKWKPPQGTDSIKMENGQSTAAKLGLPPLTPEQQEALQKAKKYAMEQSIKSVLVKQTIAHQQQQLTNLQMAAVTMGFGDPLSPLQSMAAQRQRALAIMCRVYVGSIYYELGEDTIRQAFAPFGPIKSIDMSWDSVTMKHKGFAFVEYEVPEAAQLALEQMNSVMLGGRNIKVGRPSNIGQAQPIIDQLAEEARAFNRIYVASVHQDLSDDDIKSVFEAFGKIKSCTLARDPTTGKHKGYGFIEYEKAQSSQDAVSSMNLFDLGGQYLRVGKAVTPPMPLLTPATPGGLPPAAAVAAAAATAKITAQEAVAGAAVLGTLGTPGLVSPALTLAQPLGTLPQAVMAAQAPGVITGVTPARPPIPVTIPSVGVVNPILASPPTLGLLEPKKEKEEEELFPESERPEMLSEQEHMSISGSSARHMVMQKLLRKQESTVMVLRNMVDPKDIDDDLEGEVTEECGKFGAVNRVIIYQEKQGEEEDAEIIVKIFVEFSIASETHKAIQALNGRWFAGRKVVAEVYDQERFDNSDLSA
T12 sequence (P56381 whole entry): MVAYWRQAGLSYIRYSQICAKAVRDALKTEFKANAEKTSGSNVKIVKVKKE
T9 sequence (P28066 whole entry): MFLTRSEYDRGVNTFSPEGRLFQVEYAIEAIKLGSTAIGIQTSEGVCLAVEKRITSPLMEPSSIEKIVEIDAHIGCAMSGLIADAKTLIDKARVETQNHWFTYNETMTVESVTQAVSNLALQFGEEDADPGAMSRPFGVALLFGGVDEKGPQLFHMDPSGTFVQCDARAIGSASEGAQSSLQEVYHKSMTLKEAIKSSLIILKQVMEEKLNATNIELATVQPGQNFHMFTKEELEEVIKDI
T17 sequence (P45880 whole entry): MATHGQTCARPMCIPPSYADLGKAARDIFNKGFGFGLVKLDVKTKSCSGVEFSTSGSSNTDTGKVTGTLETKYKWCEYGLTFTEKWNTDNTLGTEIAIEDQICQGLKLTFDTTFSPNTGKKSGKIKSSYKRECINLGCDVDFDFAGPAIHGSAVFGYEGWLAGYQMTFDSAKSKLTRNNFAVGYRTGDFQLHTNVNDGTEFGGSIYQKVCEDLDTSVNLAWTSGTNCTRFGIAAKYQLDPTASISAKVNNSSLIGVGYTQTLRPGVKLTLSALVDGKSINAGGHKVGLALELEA
T14 sequence (Q00325 50-362): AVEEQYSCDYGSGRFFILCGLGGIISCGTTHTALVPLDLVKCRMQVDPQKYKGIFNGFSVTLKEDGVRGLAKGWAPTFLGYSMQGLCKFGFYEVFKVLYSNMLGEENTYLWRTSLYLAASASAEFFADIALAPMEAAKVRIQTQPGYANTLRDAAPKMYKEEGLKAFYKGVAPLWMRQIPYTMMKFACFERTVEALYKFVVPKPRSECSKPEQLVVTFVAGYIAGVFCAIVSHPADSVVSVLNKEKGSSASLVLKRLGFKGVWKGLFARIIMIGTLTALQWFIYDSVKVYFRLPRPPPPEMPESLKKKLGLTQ

SMILES	Average LFQ PON_WT [1]	Average LFQ PON_WT [2]	Average LFQ PON_WT [3]	Average LFQ PON_WT [4]	Average LFQ PON_WT [5]	Average LFQ PON_WT [6]	Average LFQ PON_WT [7]	Average LFQ PON_WT [8]	Average LFQ PON_WT [9]	Average LFQ PON_WT [10]	Average LFQ PON_WT [11]	Average LFQ PON_WT [12]	Average LFQ PON_WT [13]	Average LFQ PON_WT [14]	Average LFQ PON_WT [15]	Average LFQ PON_WT [16]	Average LFQ intensity [17]	Average LFQ intensity [18]	Average LFQ intensity [19]
Cc1ccc(C(=O)Nc2ccc(CN3CCN(C)CC3)c(C(F)(F)F)c2)cc1C#Cc1cnc2cccnn12 [PON]	23.4188	25.3656	20.8844	20.5709	23.283	20.1996	24.9334	20.865	20.0873	21.0921	21.0725	23.9529	23.3461	23.3948	26.6007	19.9568	–	–	–
Cc1ccc(C(=O)Nc2ccc(CN3CCN(CCCN)CC3)c(C(F)(F)F)c2)cc1C#Cc1cnc2cccnn12 [c-ponatinib, reference compound]	–	–	–	–	–	–	–	–	–	–	–	–	–	–	–	–	22.3592	22.4465	21.804
